Assay [1] addresses Sigma non-opioid intracellular receptor 1 (Homo sapiens, UniProt Q99720). The experiment in a line: Displacement [3H]-Pentazocine from sigma 1 receptor (unknown origin) expressed in HEK cell membranes.
The species entered for assay [2] is Homo sapiens. Kind of assay: Selectivity index, ratio of Ki for displacement [3H]-Pentazocine from sigma 1 receptor (unknown origin) expressed in HEK cell membranes to Ki for [3H]-DTG from sigma 2 receptor (unknown origin) expressed in HEK cell membranes.
The target in assay [3] is Sigma intracellular receptor 2 (Homo sapiens, UniProt Q5BJF2). The experiment in a line: Displacement [3H]-DTG from sigma 2 receptor (unknown origin) expressed in HEK cell membranes.
Sequence of Sigma intracellular receptor 2 (Q5BJF2 whole entry): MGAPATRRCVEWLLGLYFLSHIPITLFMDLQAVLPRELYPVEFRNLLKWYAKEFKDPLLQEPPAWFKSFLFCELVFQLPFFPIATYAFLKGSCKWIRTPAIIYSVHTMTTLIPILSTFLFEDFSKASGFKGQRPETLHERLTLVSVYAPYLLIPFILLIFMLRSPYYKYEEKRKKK

Sequence of Sigma non-opioid intracellular receptor 1 (Q99720 whole entry): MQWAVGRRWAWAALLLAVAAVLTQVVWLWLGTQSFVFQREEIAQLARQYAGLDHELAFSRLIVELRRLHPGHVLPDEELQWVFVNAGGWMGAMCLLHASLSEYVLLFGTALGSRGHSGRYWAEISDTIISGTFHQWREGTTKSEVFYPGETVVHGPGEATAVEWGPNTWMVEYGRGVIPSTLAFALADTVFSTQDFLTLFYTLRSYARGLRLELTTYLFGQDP

For the compound `Fc1ccc(OCCCN2CCCN(c3ccc(Cl)cc3)CC2)cc1`, the Ki was 2.9 nM in assay [1] (read-out: Ki) and 5.9 nM in assay [3]. In assay [2], the Ratio Ki is 0.5.

For the compound `O=C(CCCN1CCCN(c2ccc(Cl)cn2)CC1)c1ccc(F)cc1`, the values for the Ki in assay [1] (read-out: Ki) and in assay [3] were 30 nM and 8 nM, respectively. Moreover, in assay [2], the Ratio Ki worked out at 3.8.

As for `O/N=C(/CCCN1CCCN(c2ccccn2)CC1)c1ccc(F)cc1`, the Ki in assay [1] (read-out: Ki) is 70 nM; in assay [3], 13.1 nM. Also, the Ratio Ki in assay [2] was 5.3.

As to `Fc1ccc(CCCCN2CCN(c3ccc(Cl)cn3)CC2)cc1`, the Ki stood at 95 nM in assay [1] (read-out: Ki) and 43 nM in assay [3]. The Ratio Ki in assay [2] was 2.2.

For `OC1(c2ccc(Cl)cc2)CC2CCC(C1)N2CCCSc1cccc(F)c1` (stereo unspecified), the Ki is 71 nM in assay [1] (read-out: Ki) and 8.1 nM in assay [3]. For the same compound, the Ratio Ki in assay [2] was found to be 8.8.

Consider `O=C(CCCN1CCCN(c2ccccn2)CC1)c1ccc(F)cc1`, for which the Ki in assay [1] (read-out: pKi (converted)) is 457 nM; in assay [3], 32 nM. Further, the Ratio Ki in assay [2] was found to be 14.

With `Fc1ccc(SCCCN2CCCN(c3ccc(Cl)cn3)CC2)cc1`, the Ki came out at 7.2 nM in assay [1] (read-out: Ki) and 2.2 nM in assay [3]. The Ratio Ki in assay [2] stood at 3.3.

Consider `Fc1ccc(CCCCN2CCCN(c3ccc(Cl)cc3)CC2)cc1`, for which the Ki in assay [1] (read-out: Ki) stood at 3.6 nM; in assay [3] it was 8.5 nM. Also, the Ratio Ki in assay [2] was 0.4.

With `O=C(CCCN1CCN(c2ccccn2)CC1)c1ccc(F)cc1` [AZAPERONE], the results for the Ki in assay [1] (read-out: Ki) and in assay [3] were 403 nM and 52 nM, respectively. Besides, the Ratio Ki in assay [2] was 7.8.

`O=C(CCCN1CCN(c2ccc(Cl)cn2)CC1)c1ccc(F)cc1`: the results for the Ki in assay [1] (read-out: Ki) and in assay [3] were 25 nM and 8.4 nM, respectively. Besides, the Ratio Ki in assay [2] amounted to 3.

Consider `O/N=C(/CCCN1CCCN(c2ccc(Cl)cn2)CC1)c1ccc(F)cc1`, for which the Ki in assay [1] (read-out: Ki) is 113 nM; in assay [3] it was 2.7 nM. Besides, in assay [2], the Ratio Ki came out at 41.8.

Consider `OC1(c2ccc(Cl)cc2)CC2CCC(C1)N2CCCSc1ccc(F)cc1` (stereo unspecified), for which the Ki in assay [1] (read-out: Ki) was found to be 81 nM.

As for `OC1(c2ccc(Cl)cc2)CC2CCC(C1)N2CCCCc1ccc(F)cc1` (stereo unspecified), the results for the Ki in assay [1] (read-out: Ki) and in assay [3] were 22 nM and 27 nM, respectively. The Ratio Ki in assay [2] is 0.8.

Regarding `[O-][S+](CCCN1CCN(c2ccc(Cl)cc2)CC1)c1ccc(F)cc1` (stereo unspecified), the Ki stood at 1150 nM in assay [1] (read-out: Ki) and 600 nM in assay [3]. In addition, the Ratio Ki in assay [2] was found to be 1.9.

Consider `Fc1ccc(CCCCN2CCN(c3ccc(Cl)cc3)CC2)cc1`, for which, in assay [1] (read-out: Ki), the Ki is 36 nM.

With `OC1(c2ccc(Cl)cc2)CC2CCC(C1)N2CCCOc1ccc(F)cc1` (stereo unspecified), the Ki stood at 166 nM in assay [1] (read-out: Ki) and 18 nM in assay [3].

As to `c1ccc(OCCCN2CCN(c3ccccc3)CC2)cc1`, the Ki in assay [1] (read-out: Ki) was 77.1 nM; in assay [3] it was 25.1 nM. Also, the Ratio Ki in assay [2] came out at 3.1.

As to `Clc1ccc(N2CCN(CCCOc3ccccc3)CC2)cc1`, the Ki in assay [1] (read-out: Ki) was found to be 51.7 nM; in assay [3], 33 nM. Moreover, in assay [2], the Ratio Ki was determined as 1.6.

In the case of `OC1(c2ccc(Cl)cc2)CC2CCC(C1)N2CCCSc1ccccc1F` (stereo unspecified), the Ki in assay [1] (read-out: Ki) turned out to be 57 nM; in assay [3], 2.2 nM. In addition, in assay [2], the Ratio Ki is 25.9.

Turning to `O=C(CCCN1CCCN(c2ncccn2)CC1)c1ccc(F)cc1`, the Ki in assay [1] (read-out: Ki) was found to be 63 nM; in assay [3], 44 nM. The Ratio Ki in assay [2] is 1.4.

Take `O/N=C(/CCCN1CCCN(c2ncccn2)CC1)c1ccc(F)cc1`: the Ki was 148 nM in assay [1] (read-out: Ki) and 26 nM in assay [3]. The Ratio Ki in assay [2] worked out at 5.7.

In the case of `Fc1ccc(OCCCN2CCN(c3ccccc3)CC2)cc1`, the Ki in assay [1] (read-out: Ki) worked out at 41.5 nM; in assay [3] it was 5.12 nM. Also, the Ratio Ki in assay [2] was 8.1.

Values taken from ChEMBL document CHEMBL4390638, “SYA 013 analogs as moderately selective sigma-2 (σ2) ligands: Structure-affinity relationship studies” (Bioorg Med Chem, 2019).
